Measured values taken from patent publication US11584744B2 (UNIVERSITY OF WASHINGTON, priority 2017, dated 2023).
Values joined by “and” are separate entries in the source; they are usually repeats but may differ in a detail not shown here. Equal entries are not always repeated. Where two headings read alike, the source gives them in different places.

Tests used:
MetRS (T. brucei) = target: T1, MetRS (T. brucei) (Trypanosoma brucei brucei, UniProt Q38C91); test: MetRS (T. brucei) enzyme inhibition; type: biochemical
T1 sequence (Q38C91 1-773): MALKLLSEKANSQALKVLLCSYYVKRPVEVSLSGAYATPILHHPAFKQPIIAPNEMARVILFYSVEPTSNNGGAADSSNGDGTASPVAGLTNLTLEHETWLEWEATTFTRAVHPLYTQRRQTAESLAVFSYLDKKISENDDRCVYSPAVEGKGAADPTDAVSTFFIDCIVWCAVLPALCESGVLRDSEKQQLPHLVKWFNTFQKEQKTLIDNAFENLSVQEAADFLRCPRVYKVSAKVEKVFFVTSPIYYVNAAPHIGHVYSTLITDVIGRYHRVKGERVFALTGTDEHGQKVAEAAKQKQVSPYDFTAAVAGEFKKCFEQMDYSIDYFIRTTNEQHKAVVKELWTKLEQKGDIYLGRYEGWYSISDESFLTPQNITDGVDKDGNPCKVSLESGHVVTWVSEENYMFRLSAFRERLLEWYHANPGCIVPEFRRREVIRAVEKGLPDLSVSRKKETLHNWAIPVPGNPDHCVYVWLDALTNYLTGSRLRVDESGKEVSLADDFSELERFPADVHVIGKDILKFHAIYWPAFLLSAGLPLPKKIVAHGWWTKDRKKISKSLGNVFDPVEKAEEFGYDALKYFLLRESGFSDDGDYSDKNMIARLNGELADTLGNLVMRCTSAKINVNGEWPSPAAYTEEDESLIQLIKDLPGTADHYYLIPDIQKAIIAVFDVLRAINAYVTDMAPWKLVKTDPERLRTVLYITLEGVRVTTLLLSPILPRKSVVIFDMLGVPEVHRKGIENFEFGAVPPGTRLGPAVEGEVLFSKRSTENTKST

MetRS (C. parvum) = MetRS (C. parvum) (Cryptosporidium parvum, UniProt Q5CVN0); test: MetRS (C. parvum) enzyme inhibition; type: biochemical; conditions: read-out: (C) MetRS (C. parvum) IC50
MetRS (C. parvum), sequence (Q5CVN0 entry or part of it): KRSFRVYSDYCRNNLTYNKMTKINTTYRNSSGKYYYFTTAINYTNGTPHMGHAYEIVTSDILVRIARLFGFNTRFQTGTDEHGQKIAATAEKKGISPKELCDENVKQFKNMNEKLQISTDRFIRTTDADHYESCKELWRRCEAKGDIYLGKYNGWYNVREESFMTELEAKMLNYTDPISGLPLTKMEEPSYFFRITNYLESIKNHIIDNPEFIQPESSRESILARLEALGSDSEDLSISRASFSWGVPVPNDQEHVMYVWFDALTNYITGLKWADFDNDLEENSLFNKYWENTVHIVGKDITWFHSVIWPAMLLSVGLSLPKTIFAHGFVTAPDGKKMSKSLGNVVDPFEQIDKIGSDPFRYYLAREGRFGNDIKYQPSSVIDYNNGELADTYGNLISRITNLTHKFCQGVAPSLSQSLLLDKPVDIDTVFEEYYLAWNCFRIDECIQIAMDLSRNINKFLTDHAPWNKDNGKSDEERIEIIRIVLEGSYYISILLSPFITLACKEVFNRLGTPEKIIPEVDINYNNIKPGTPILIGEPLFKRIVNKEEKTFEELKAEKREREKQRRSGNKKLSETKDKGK

T. cruzi = T. cruzi growth inhibition; type: cell-based, Trypanosoma cruzi; conditions: read-out: (E) T. cruzi EC50
T. brucei = T. brucei growth inhibition; type: cell-based, Trypanosoma brucei; conditions: Trypanosoma brucei; read-out: (D) T. brucei EC50

Row | Compound | IC50 (MetRS (T. brucei)) | IC50 (MetRS (C. parvum)) | EC50 (T. cruzi; Trypanosoma cruzi) | EC50 (T. brucei) | EC50 (T. cruzi)
1 | Fc1ccc2nc(Cn3cc(Cc4ccc(Cl)cc4Cl)[nH]c3=S)[nH]c2n1 [Compound 2056, 5-(2,4-dichlorobenzyl)-3-((5-fluoro-3H-imidazo[4,5-b]pyridin-2-yl)methyl)-1H-imidazole-2(3H)-thione] | < 40 nM | 195 nM | 3720 nM | 242 nM | –
2 | CCn1c(Cc2ccc(Cl)cc2Cl)cn(Cc2nc3ccccc3[nH]2)c1=O [Compound 2068, 1-[(1H-1,3-benzodiazol-2-yl)methyl]-4-[(2,4-dichlorophenyl)methyl]-3-ethyl-2,3-dihydro-1H-imidazol-2-one] | < 40 nM | < 40 nM | 1000 nM | 40.2 nM | –
3 | CCn1c(Cc2ccc(Cl)cc2Cl)cn(Cc2nc3ccc(F)nc3[nH]2)c1=S [Compound 2103, 4-[(2,4-dichlorophenyl)methyl]-3-ethyl-1-({5-fluoro-1H-imidazo[4,5-b]pyridin-2-yl}methyl)-2,3-dihydro-1H-imidazole-2-thione] | 63 nM | 175 nM | 2930 nM | 113 nM | –
4 | CSc1nc(Cc2ccc(Cl)cc2Cl)cn1Cc1nc2ccc(F)nc2[nH]1 [Compound 2104, 4-[(2,4-dichlorophenyl)methyl]-1-({5-fluoro-1H-imidazo[4,5-b]pyridin-2-yl}methyl)-2-(methylsulfanyl)-1H-imidazole] | < 40 nM | 40.3 nM | 1480 nM | 73.4 nM | –
5 | CSc1nc(Cc2ccc(Cl)cc2Cl)cn1Cc1nc2nc(Cl)ccc2[nH]1 [Compound 2109, 1-({5-chloro-1H-imidazo[4,5-b]pyridin-2-yl}methyl)-4-[(2,4-dichlorophenyl)methyl]-2-(methylsulfanyl)-1H-imidazole] | < 40 nM | < 40 nM | 329 nM | 53.5 nM | –
6 | COc1ccc(-c2cccc3c2CN(Cc2nc4nc(Cl)ccc4[nH]2)CC3)c(Cl)c1 [Compound 2161, 2-({5-chloro-1H-imidazo[4,5-b]pyridin-2-yl}methyl)-8-(2-chloro-4-methoxyphenyl)-1,2,3,4-tetrahydroisoquinoline] | < 40 nM | 252 nM | – | 1050 nM | –
7 | COc1ccc(-c2cccc3nc(Cc4nc5nc(Cl)ccc5[nH]4)oc23)c(Cl)c1 [Compound 2162, 2-({5-chloro-1H-imidazo[4,5-b]pyridin-2-yl}methyl)-7-(2-chloro-4-methoxyphenyl)-1,3-benzoxazole] | < 40 nM | 90.4 nM | – | 175 nM | –
8 | CCOc1ccc(-c2cccc3nc(Cc4nc5nc(Cl)ccc5[nH]4)cn23)c(Cl)c1 [Compound 2164, 2-({5-chloro-1H-imidazo[4,5-b]pyridin-2-yl}methyl)-5-(2-chloro-4-ethoxyphenyl)imidazo[1,2-a]pyridine] | 143 nM | > 1000 nM | – | 1910 nM | –
9 | Cc1ccc(-c2cccc3nc(Cc4nc5nc(Cl)ccc5[nH]4)cn23)c(Cl)c1 [Compound 2165, 2-({5-chloro-1H-imidazo[4,5-b]pyridin-2-yl}methyl)-5-(2-chloro-4-methylphenyl)imidazo[1,2-a]pyridine] | < 40 nM | 326 nM | – | > 200 nM | –
10 | COc1ccc(-c2cccc3c2CN(Cc2nc4nc(F)ccc4[nH]2)CC3)c(Cl)c1 [Compound 2167, 8-(2-chloro-4-methoxyphenyl)-2-((5-fluoro-1H-imidazo[4,5-b]pyridin-2-yl)methyl)-1,2,3,4-tetrahydroisoquinoline] | 203 nM | 505 nM | – | > 2000 nM | –
11 | COc1ccc(-c2cnc3ccc(NCc4nc5nc(F)ccc5[nH]4)cn23)c(Cl)c1 [Compound 2173, 3-(2-chloro-4-methoxyphenyl)—N-((5-fluoro-1H-imidazo[4,5-b]pyridin-2-yl)methyl)imidazo[1,2-a]pyridin-6-amine] | 57 nM | 185 nM | – | > 2000 nM | –
12 | COc1ccc(-c2cnc(N)c3nc(Cc4nc5nc(Cl)ccc5[nH]4)cn23)c(Cl)c1 [Compound 2175, 2-({5-chloro-1H-imidazo[4,5-b]pyridin-2-yl}methyl)-5-(2-chloro-4-methoxyphenyl)imidazo[1,2-a]pyrazin-8-amine] | 72 nM and < 40 nM | 41.7 nM | 681 nM | – | 638 nM
13 | CCn1cc(-c2ccc(OC)cc2Cl)c2c1CCN(Cc1nc3nc(Cl)ccc3[nH]1)C2 [Compound 2177, 5-chlor0-2-((3-(2-chloro-4-methoxyphenyl)-1-ethyl-6,7-dihydro-1H-pyrrolo[3,2-c]pyridin-5(4H)-yl)methyl)-1H-imidazo[4,5-b]pyridine] | < 40 nM | < 40 nM | 409 nM | 92.5 nM | –
14 | COc1ccc(-n2ccc(=O)c3cc(F)c(Cc4nc5nc(Cl)ccc5[nH]4)cc32)c(Cl)c1 [Compound 2178, 7-((5-chloro-1H-imidazo[4,5-b]pyridin-2-yl)methyl)-1-(2-chloro-4-methoxyphenyl)-6-fluoroquinolin-4(1H)-one] | 116 nM | 881 nM | – | 5660 nM | –
15 | COc1ccc(-c2ccc(N)c3nc(Cc4nc5cc(Cl)ccc5[nH]4)cn23)c(Cl)c1 [Compound 2179, 2-[(6-chloro-1H-1,3-benzodiazol-2-yl)methyl]-5-(2-chloro-4-methoxyphenyl)imidazo[1,2-a]pyridin-8-amine] | < 40 nM | 76 nM | – | 183 nM | –
16 | CCNC(=O)Nc1ccc(-c2ccc(OC)cc2Cl)n2cc(Cc3nc4ccc(Cl)cc4[nH]3)nc12 [Compound 2182, 1-{2-[(6-chloro-1H-1,3-benzodiazol-2-yl)methyl]-5-(2-chloro-4-methoxyphenyl)imidazo[1,2-a]pyridin-8-yl}-3-ethylurea] | < 40 nM | 42.1 nM | 647 nM | 84 nM | –
17 | COc1ccc(-c2nn(C)c3c2CN(Cc2nc4nc(Cl)ccc4[nH]2)CC3)c(Cl)c1 [Compound 2187, 5-((5-chloro-1H-imidazo[4,5-b]pyridin-2-yl)methyl)-3-(2-chloro-4-methoxyphenyl)-1-methyl-4,5,6,7-tetrahydro-1H-pyrazolo[4,3-c]pyridine] | 117 nM | 113 nM | – | > 2000 nM | –
18 | COc1ccc(-c2c3c(nn2C)CCN(Cc2nc4nc(Cl)ccc4[nH]2)C3)c(Cl)c1 [Compound 2188, 5-((5-chloro-1H-imidazo[4,5-b]pyridin-2-yl)methyl)-3-(2-chloro-4-methoxyphenyl)-2-methyl-4,5,6,7-tetrahydr0-2H-pyrazolo[4,3-c]pyridine] | < 40 nM | 443 nM | – | 808 nM | –
19 | Clc1ccc(Cn2cnc(Cc3nc4nc(Cl)ccc4[nH]3)c2)c(Cl)c1 [Compound 2190, 4-({5-chloro-1H-imidazo[4,5-b]pyridin-2-yl}methyl)-1-[(2,4-dichlorophenyl)methyl]-1H-imidazole] | < 40 nM | 91.7 nM | – | 174 nM | –
20 | CC(=O)Nc1nc(Cc2ccc(Cl)cc2Cl)cn1Cc1nc2ccc(Cl)cc2[nH]1 [Compound 2193, N-{1-[(6-chloro-1H-1,3-benzodiazol-2-yl)methyl]-4-[(2,4-dichlorophenyl)methyl]-1H-imidazol-2-yl}acetamide] | < 40 nM | 232 nM | – | 257 nM | –
21 | Clc1ccc(Cc2cn(Cc3nc4ccc(Cl)cc4[nH]3)c(Br)n2)c(Cl)c1 [Compound 2194, 2-({2-bromo-4-[(2,4-dichlorophenyl)methyl]-1H-imidazol-1-yl}methyl)-6-chloro-1H-1,3-benzodiazole] | > 10000 nM | > 1000 nM | – | > 2000 nM | –
22 | OCCNc1nc(Cc2ccc(Cl)cc2Cl)cn1Cc1nc2ccc(Cl)cc2[nH]1 [Compound 2196, 2-({1-[(6-chloro-1H-1,3-benzodiazol-2-yl)methyl]-4-[(2,4-dichlorophenyl)methyl]-1H-imidazol-2-yl}amino)ethan-1-ol] | 1280 nM | > 1000 nM | – | > 2000 nM | –
23 | O=C(O)Cn1c(C(O)c2ccc(Cl)cc2Cl)cn(Cc2nc3ccc(Cl)nc3[nH]2)c1=O (stereo not drawn) [Compound 2218, 2-(3-((5-chloro-3H-imidazo[4,5-b]pyridin-2-yl)methyl)-5((2,4-dichlorophenyl)(hydroxy)methyl)-2-oxo-2,3-dihydro-1H-imidazol-1-yl)acetic acid] | < 40 nM | 40.1 nM | > 5000 nM | 718 nM | –
